Assay [1] addresses T1, Sentrin-specific protease 8 (Homo sapiens, UniProt Q96LD8).
T1 sequence (Q96LD8 whole entry): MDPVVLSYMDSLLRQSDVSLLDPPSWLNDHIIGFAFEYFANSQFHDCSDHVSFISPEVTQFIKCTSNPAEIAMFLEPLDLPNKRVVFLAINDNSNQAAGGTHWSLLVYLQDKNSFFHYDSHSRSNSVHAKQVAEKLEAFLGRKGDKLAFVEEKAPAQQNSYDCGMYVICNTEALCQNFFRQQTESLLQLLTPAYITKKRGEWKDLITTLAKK
Type of assay: functional.

The target in assay [2] is T2, Apoptotic protease-activating factor 1 (Homo sapiens, UniProt O14727).
T2 sequence (O14727 whole entry): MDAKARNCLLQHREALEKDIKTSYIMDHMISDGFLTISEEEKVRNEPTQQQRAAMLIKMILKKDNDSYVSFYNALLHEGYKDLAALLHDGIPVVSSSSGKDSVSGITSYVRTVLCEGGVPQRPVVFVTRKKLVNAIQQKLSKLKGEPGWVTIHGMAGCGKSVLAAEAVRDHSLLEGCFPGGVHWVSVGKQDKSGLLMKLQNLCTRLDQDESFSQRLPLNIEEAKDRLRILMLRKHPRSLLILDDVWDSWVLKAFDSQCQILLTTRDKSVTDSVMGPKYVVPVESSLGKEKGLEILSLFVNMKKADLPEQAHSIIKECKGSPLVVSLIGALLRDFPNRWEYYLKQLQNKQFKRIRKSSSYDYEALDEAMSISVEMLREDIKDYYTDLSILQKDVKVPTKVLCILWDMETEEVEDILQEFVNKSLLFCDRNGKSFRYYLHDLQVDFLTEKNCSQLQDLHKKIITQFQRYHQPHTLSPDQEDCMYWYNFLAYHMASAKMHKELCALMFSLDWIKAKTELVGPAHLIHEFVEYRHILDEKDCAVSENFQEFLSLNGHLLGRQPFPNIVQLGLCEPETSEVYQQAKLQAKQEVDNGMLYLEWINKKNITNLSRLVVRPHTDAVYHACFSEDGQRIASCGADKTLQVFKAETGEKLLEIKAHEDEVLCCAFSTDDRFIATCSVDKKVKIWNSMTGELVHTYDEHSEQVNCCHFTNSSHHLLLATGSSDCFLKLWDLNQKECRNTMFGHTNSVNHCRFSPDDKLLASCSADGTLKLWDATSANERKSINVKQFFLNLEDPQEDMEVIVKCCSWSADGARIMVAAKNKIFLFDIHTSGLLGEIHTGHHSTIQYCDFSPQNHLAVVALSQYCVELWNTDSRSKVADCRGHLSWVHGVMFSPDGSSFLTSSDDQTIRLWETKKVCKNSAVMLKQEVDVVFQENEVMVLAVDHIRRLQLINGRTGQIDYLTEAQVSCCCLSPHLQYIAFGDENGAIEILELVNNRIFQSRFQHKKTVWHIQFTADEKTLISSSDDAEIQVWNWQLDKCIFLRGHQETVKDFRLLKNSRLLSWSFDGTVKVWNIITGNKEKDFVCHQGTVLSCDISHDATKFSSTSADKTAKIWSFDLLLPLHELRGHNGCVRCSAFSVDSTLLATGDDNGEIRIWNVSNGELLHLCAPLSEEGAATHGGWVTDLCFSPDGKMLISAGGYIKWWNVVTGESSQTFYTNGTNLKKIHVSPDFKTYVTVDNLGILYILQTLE
It counts as functional.

Assay [3] has as its target T3, Caspase-3 (Homo sapiens, UniProt P42574).
T3 sequence (P42574 whole entry): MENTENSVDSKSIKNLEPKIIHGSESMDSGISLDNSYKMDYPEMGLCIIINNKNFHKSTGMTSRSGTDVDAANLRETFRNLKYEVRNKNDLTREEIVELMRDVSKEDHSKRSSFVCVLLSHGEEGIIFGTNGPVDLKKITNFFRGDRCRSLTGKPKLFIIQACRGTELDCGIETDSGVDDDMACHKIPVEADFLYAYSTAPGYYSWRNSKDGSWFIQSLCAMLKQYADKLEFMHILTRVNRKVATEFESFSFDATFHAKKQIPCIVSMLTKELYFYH
Description: SAR Analysis of small molecule inhibitors of Sentrin-specific proteases (SENPs) using a Caspase-3 Selectivity assay. [Related pubchem assays (depositor defined):AID2540, AID2599, AID434973, AID489001]. It counts as functional.

Assay [4] deals with T4, Sentrin-specific protease 7 (Homo sapiens, UniProt Q9BQF6).
T4 sequence (Q9BQF6 whole entry): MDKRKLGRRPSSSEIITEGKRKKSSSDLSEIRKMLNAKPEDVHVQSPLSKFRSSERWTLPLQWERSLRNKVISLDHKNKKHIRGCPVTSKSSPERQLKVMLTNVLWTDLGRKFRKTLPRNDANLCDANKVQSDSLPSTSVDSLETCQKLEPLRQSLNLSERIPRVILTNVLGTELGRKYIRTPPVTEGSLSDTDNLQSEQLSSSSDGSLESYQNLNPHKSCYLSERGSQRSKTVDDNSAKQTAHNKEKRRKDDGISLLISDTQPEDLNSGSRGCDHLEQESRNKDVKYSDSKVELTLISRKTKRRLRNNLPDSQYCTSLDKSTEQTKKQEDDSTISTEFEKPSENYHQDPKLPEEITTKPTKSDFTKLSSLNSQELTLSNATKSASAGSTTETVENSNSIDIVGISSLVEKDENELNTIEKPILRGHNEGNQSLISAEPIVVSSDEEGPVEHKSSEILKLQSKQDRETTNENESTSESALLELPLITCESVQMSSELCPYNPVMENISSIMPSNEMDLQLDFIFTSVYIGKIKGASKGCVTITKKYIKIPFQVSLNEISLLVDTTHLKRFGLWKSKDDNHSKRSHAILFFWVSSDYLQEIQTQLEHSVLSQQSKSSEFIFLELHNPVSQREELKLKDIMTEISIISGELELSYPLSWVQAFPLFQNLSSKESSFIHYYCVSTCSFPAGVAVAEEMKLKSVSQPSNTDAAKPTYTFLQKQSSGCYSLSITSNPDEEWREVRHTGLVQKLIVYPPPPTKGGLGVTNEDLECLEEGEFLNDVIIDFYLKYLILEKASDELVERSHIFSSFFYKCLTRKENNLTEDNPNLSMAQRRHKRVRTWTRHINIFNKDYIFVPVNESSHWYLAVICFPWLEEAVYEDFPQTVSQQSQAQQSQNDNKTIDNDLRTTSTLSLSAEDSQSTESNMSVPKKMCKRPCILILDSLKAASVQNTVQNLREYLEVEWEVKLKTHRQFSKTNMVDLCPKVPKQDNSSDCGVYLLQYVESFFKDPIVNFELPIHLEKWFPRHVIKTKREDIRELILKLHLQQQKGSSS
Description: inhibition of human SENP7 cleavage activity – biochemical, luminescence, SAR follow-up (AID 504497). Type of assay: functional.

Assay [5] has as its target Tyrosyl-DNA phosphodiesterase 2 (Homo sapiens, UniProt O95551). Nature of the assay: potency against TDP2 phosphodiesterase activity – biochemical, epi absorbance, IC50, dose response (AID 743297).

Structures are written as SMILES. The source made the active and inactive calls. Cut-off read from the data, not from the text of the source, for most assays here: actives have a measured IC50 and inactives only a lower limit.

Tyrosyl-DNA phosphodiesterase 2, sequence (O95551 whole entry): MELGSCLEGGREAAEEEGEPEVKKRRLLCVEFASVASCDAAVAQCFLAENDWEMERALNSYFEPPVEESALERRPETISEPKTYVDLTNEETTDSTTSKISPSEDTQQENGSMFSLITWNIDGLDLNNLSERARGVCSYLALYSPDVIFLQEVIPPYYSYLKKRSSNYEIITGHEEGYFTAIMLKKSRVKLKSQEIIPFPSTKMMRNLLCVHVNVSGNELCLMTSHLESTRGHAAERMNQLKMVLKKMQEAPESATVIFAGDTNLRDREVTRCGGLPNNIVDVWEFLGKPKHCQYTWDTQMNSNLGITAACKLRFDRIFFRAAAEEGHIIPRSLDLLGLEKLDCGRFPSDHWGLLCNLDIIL

In the case of `O=C(NN=c1c(=O)c2ccccc2c1=O)c1ccccc1`, the IC50 in assay [1] was > 100 µM (inactive); in assay [2], 1.66 µM (active); in assay [3], 51.8 µM (active); in assay [4], 12 µM (active); in assay [5] it was 5.36 µM (active).

The values above are taken from ChEMBL document CHEMBL1201862, “PubChem BioAssay data set” (2004).
